Experimental data taken from ChEMBL document CHEMBL1150270, “Effect of the major glycosides of Harpagophytum procumbens (Devil's Claw) on epidermal cyclooxygenase-2 (COX-2) in vitro” (2008).
The source made the active and inactive calls. No cut-off for these calls is given here.

Experiments:
Assay type in all cases: functional
Sus scrofa [1] = organism: Sus scrofa; assay: Inhibition of COX2 synthesis in pig skin
Sus scrofa [2] = organism: Sus scrofa; assay: Suppression of COX2 expression in pig skin by immunostaining after 6 hrs
Sus scrofa [3] = organism: Sus scrofa; assay: Increase in COX2 expression in pig skin at 500 uM by Western blotting
Sus scrofa [4] = organism: Sus scrofa; assay: Reduction of COX2 expression in pig skin at 500 uM by Western blotting

Compound | inhibition (INH) (Sus scrofa [1]) [%] | Activity (Sus scrofa [2]) | Activity (Sus scrofa [3]) | Activity (Sus scrofa [4])
CC(C)Cc1ccc(C(C)C(=O)O)cc1 (stereo not given) [IBUPROFEN] | <50 | Active |  | 
C[C@@H]1O[C@@H](O[C@@H]2[C@@H](O)[C@H](OCCc3ccc(O)c(O)c3)O[C@H](CO)[C@H]2OC(=O)/C=C/c2ccc(O)c(O)c2)[C@H](O)[C@H](O)[C@H]1O [ACETOSIDE] | <50 | Active |  | 
C[C@]1(O)C[C@@H](O)[C@]2(O)C=CO[C@@H](O[C@H]3O[C@H](CO)[C@@H](O)[C@H](O)[C@H]3O)[C@@H]21 |  |  | Active | 
C[C@]1(OC(=O)/C=C/c2ccc(O)cc2)C[C@@H](O)[C@]2(O)C=CO[C@@H](O[C@@H]3O[C@H](CO)[C@@H](O)[C@H](O)[C@H]3O)[C@@H]21 | <50 | Active |  | Active
C[C@]1(OC(=O)/C=C/c2ccccc2)C[C@@H](O)[C@]2(O)C=CO[C@@H](O[C@@H]3O[C@H](CO)[C@@H](O)[C@H](O)[C@H]3O)[C@@H]21 [HARPAGOSIDE] | <50 | Active |  | 
